Source: US9416151B2, “Use of glycyrrhetinic acid, glycyrrhizic acid and related compounds for prevention and/or treatment of pulmonary fibrosis” (priority 2010, dated 2016)
“Also recorded” adds a separate entry of the source.

How the values were obtained:
[1] = test system: mice with IR-induced pneumonitis; assay: Lung morphology, plasma exudation and inflammatory cell infiltration, acute phase of IR-induced pneumonitis; type: in vivo, C57BL/6 fibrosis-prone mice; details: 2.5 days after thoracic IR 15 Gy
Procedure: (§1) Briefly, C57BL/6 fibrosis-prone mice received a single-dose of thoracic IR at 15 Gy with a dose rate of 1.9 Gy/min. Six hours after IR exposure, the mice were divided into the following treatment groups: 1) normal (received 0 Gy; no treatment); 2) vehicle-treated; 3) GA-treated (30-40 mg/kg/q.o.d) (i.e. every other day) (the GA dosage used herein was derived from the effective dosage for humans (3-4 mg/kg), which is typically 6-10 times lower than that of mice); 4) dexamethasone-treated (Positive Control 1) (Dex, 3 mg/kg, i.m. or p.o. qod); 5) amifostine-treated (Positive Control 2) (Ami, 200 mg/kg/ i.v, 0.5 hr prior to irradiation); and 6) celebrex-treated (Positive Control 3) (30 mg/kg, po, qod).
Briefly, C57BL/6 fibrosis-prone mice received a single-dose of thoracic IR at 15 Gy with a dose rate of 1.9 Gy/min and were treated as described in Example 2. The mice were sacrificed 2.5 days after IR exposure, and lung tissues were harvested and analyzed for morphological changes.

[2] = test system: inflammatory mediators (IMs), including IL1a, TNFa, PF4 and VCAM-1; assay: Inflammatory mediators in lung homogenates by ELISA, acute phase of IR-induced pneumonitis; type: in vivo, C57BL/6 fibrosis-prone mice; details: 2.5 days after thoracic IR 15 Gy; treatment from 6 h after IR; vs vehicle, p<0.05
Procedure: as §1
The mice were sacrificed 2.5 days after IR exposure, and fresh lung tissue homogenates were prepared using lysis buffer mixed with protenase inhibitor cocktails. After protein concentration was adjusted to 1 mg/ml, the fresh lung homogenates were added to ELISA plates at a concentration of 100 μl/well. The levels of inflammatory mediators were measured by ELISA.

[3] = test system: mice with IR-induced pulmonary fibrosis; assay: Lung density by cone beam CT scan (CBCT); type: in vivo; details: for lung density (abnormal increase): 7.5 months after IR 15 Gy, P<0.05
Procedure: To assess effects of GA on lung density, cone beam CT scan (CBCT) of mouse lungs was performed. CBCT provides a complete 3D 650×650×428 scan (i.e. 428 slices) of the lungs with isotropic resolution at 270 μm (central slice shown in FIG. 11) in 30 seconds. The scanner achieves a CT density sensitivity of ˜[…], and thus, changes in lung density can be discerned. The CBCT imaging data were further analyzed using MATLAB software. The lungs were automatically segmented (FIG. 12A) and a 3D image was generated for each mouse lung (FIG. 12B). To reduce the effect of cardiac motion on the mean value of lung density, boundaries of the lungs were not used for analysis. A histogram of voxel intensity (pulmonary tissue density) of each mouse was created (FIG. 13).

[4] = Toxicity of long-term use: activity, fur morphology, body weight; type: in vivo
[5] = test system: ACTH (adrenocorticotropic hormone); growth hormone (GH); details: in vivo
Procedure: The chemical structure of GA is similar to that of cortisol. Thus, this Example investigates whether the long-term use of GA would affect the production of cortisol and cause side effects. The plasma levels of ACTH (adrenocorticotropic hormone), a […], were measured using ELISA at Weeks 6, 7, and 10 after GA-treatments (40 mg/kg, god, p.o).
In addition, plasma levels of growth hormone (GH) were measured using ELISA at Weeks 6, 7, and 10 after GA treatments.

[6] = test system: pulmonary fibrosis; assay: Inventors' observation on dexamethasone in pulmonary fibrosis; type: in vivo; details: compared to non-treated controls
[7] = test system: IL1a, TNFa, lymphotactin and p-selectin; assay: Inflammatory mediators, sub-acute phase, GA administered 24 hours after IR exposure; type: in vivo, mice; details: GA given 24 hours after thoracic IR at 5, 10 and 15 Gy
Procedure: The administration of GA 24 hours after IR exposure can effectively block the surge in inflammatory responses.

[8] = test system: mice with IR-induced pulmonary fibrosis; assay: Lung compliance (plethysmograph pressure-volume measurements); type: in vivo; details: 6.5 months after IR 15 Gy; P<0.05
Procedure: To assess the effects of GA on lung compliance, mice were anesthetized and their trachea were surgically exposed and incised. An 18-gauge, 1 cm stainless steel tube was inserted into the trachea and secured with surgical sutures. The respiratory rate and tidal volume of the mice were measured by a Harvard rodent ventilator. The average respiratory rate was 150 breaths per minute and the tidal volume was adjusted according to the weight (0.01 ml per gram body weight). The mice were then placed in a plethysmograph for pressure-volume measurements.

[9] = test system: SP-D and IL1a; assay: Plasma levels of SP-D and IL1a, acute phase of IR-induced pneumonitis; type: in vivo, C57BL/6 fibrosis-prone mice; details: 2.5 days after thoracic IR; P<0.05
Procedure: as §1
IR damages lung epithelium and endothelium cells, and causes dysfunction of tight junction, increased cellular permeability, and the loss of integrity of the alveolar-capillary barrier. As a result, SP-D and IL1a abnormally enter into the blood from inflamed pulmonary tissue, leading to elevated plasma levels of SP-D and IL1a.
In this Example, C57BL/6 fibrosis-prone mice received a single-dose of thoracic IR at 15 Gy with a dose rate of 1.9 Gy/min and were treated as described in Example 2. The mice were sacrificed 2.5 days after IR exposure, and plasma levels of SP-D and IL1a were measured.

[10] = test system: mice with IR-induced pneumonitis; assay: Sub-acute phase of IR-induced pneumonitis: lung tissue and BALF assays; type: in vivo, C57BL/6 fibrosis-prone mice
Procedure: as §1
Briefly, C57BL/6 fibrosis-prone mice received a thoracic IR and were treated as described in Example 2. The mice were sacrificed 17 days after IR exposure, and lung tissues were harvested. Bronchoalveolar lavage fluid (BALF) assays were performed.

[11] = test system: mice with IR-induced pulmonary fibrosis; assay: Respiratory rate in IR-induced pulmonary fibrosis (ventilator with pressure plethysmograph); type: in vivo
Procedure: Mice exposed to thoracic IR develops pulmonary fibrosis 6 months after IR exposure at 18 Gy, 8 months after IR exposure at 15 Gy, and 10 months after IR exposure at 12.5 Gy. To access the treatment effects of GA on lung fibrosis and lung function, the respiratory rate, lung density, and lung compliance of the mice were determined.
To assess improvement on respiratory function, mice exposed to thoracic IR at 15 Gy were treated with GA (30-40 mg/kg) q.o.d. or twice/week for 3 months. Mouse respiratory rate was measured using a Harvard rodent ventilator connected to a pressure plethysmograph.

[12] = test system: mice with IR-induced pulmonary fibrosis; assay: Lung histology (H&E, trichrome), hydroxyproline and TGFβ in IR-induced fibrosis; type: in vivo
Procedure: Briefly, mice treated with GA (40 mg/kg/q.o.d.) for 3 months were sacrificed 7 months after IR exposure at 15 Gy, and lung tissue specimens were stained using hematoxylin and eosin (H&E) stain.
To assess whether GA reduces abnormal collagen deposition in lungs, lung tissue specimen was stained with collagen-binding trichrome blue dye.
The reduction of collagen deposition was further analyzed by measuring the levels of hydroxyproline, a key component of collagen.

[13] = test system: IR-induced pneumonitis; assay: GLA tablets in a lung cancer patient receiving 2nd IR treatment; type: in vivo; details: one patient
Procedure: In collaboration with radiation oncologists at the First Affiliated Hospital of Fujian Medical School in China, GLA tablets (produced by Minophagen Co. in Japan and available in pharmacies in China) were administered to a patient who received their 2nd IR treatment for lung cancer. […] To control the progression of pneumonitis, they received dexamethasone treatment. Due to tumor re-growth 9 months after their 1st IR treatment, they received a 2nd IR treatment with warnings that IR may worsen pneumonitis.
In order to mitigate IR-induced lung injury, GLA was administered at a does of 150 mg per day (equivalent to GA about 85 mg per day) starting from the date of 2nd treatment for 3 months. The result was unexpectedly surprising.

NCCCNCCSP(=O)(O)O [amifostine, reference compound]
plasma exudation and inflammatory cell infiltration into the interstitial space [1]: produced similar treatment effects | levels of inflammatory mediators (IL1a, TNFa, PF4, VCAM-1) in lung homogenates [2]: extent of inhibition by GA was comparable

Cc1ccc(-c2cc(C(F)(F)F)nn2-c2ccc(S(N)(=O)=O)cc2)cc1 [celebrex, reference compound]
plasma exudation and inflammatory cell infiltration into the interstitial space [1]: produced similar treatment effects | levels of inflammatory mediators (IL1a, TNFa, PF4, VCAM-1) in lung homogenates [2]: extent of inhibition by GA was comparable | lung density (abnormal increase) [3]: reduction in lung density by GA is more potent that of celebrex | body weight ([4]; 7.5 months post IR 15 Gy, vehicle-treated mice lost 6-7 g): less severe loss of BW

C[C@@H]1C[C@H]2[C@@H]3CCC4=CC(=O)C=C[C@]4(C)[C@@]3(F)[C@@H](O)C[C@]2(C)[C@@]1(O)C(=O)CO [dexamethasone, reference compound]
plasma growth hormone (GH) level [5]: increased | reduction in plasma ACTH levels [5]: 10-50 fold | course of pulmonary fibrosis and survival [6]: may result in worsening of pulmonary fibrosis, leading to lung failure or even earlier death

glycyrrhetinic acid [GA]
plasma exudation and inflammatory cell infiltration into the interstitial space [1]: potently suppressed; also recorded: reduces inflammatory cell infiltration and plasma exudation | plasma growth hormone (GH) level [5]: increased | plasma ACTH levels ([5]; 40 mg/kg): rapidly returned to normal | levels of IL1a, TNFa, lymphotactin and p-selectin [7]: potently reduced; also recorded: inhibits inflammatory responses | lung compliance [8]: potently, and mostly effectively, enhanced | plasma levels of IL1a [9]: effectively reduced; also recorded: reduces plasma levels of SP-D and ILa | plasma levels of SP-D [9]: effectively reduced; also recorded: reduces plasma levels of SP-D | levels of inflammatory mediators (IL1a, TNFa, PF4, VCAM-1) in lung homogenates [2]: effectively reduced levels of IMs; also recorded: inhibition effects | Mean Density (lung density) ([3]; 1 year post IR exposure at 18 Gy, normal control −454, IR without treatment −364): −458 HU | lung density (abnormal increase) [3]: significantly reduced; also recorded: reduces lung density | infiltration of neutrophils into the interstitial fluid (lung tissue) ([10]; 17 days after IR 15 Gy): suppression of infiltration of neutrophils; also recorded: mitigates the sub-acute phase of IR-induced pneumonitis | myeloperoxidase (MPO) activity in BALF ([10]; 17 days after IR 15 Gy, P<0.05): reduces | neutrophils infiltrated into bronchoalveolar lavage fluid ([10]; 17 days after IR 15 Gy, P<0.05): reduced; also recorded: reduces the number of neutrophils | levels of lymphotactin and p-selectin ([10]; 17 days after IR exposure, P<0.05): reduced; also recorded: reduces the levels of inflammatory mediators | death during treatment ([4]; long-term GA treatment): No mouse died | side effects (activity, fur morphology, body weight) ([4]; long-term use): little side effects | respiratory rate ([11]; 5 months after IR 18 Gy): reduction of respiratory rate | respiratory rate ([11]; 7 months after IR 15 Gy, GA 30-40 mg/kg q.o.d. or twice/week for 3 months, P<0.05): effectively reduced; also recorded: reduction of respiratory rate | lung morphology (H&E stain) ([12]; GA 40 mg/kg/q.o.d. for 3 months, 7 months after IR 15 Gy): near-normal morphology; also recorded: mitigates IR-induced pulmonary fibrosis | collagen deposition (trichrome blue dye) ([12]; IR-exposed mice): reduces collagen deposition; also recorded: mitigates IR-induced lung fibrosis | level of TGFβ ([12]; IR-exposed mice): reduced | hydroxyproline levels in the lungs ([12]; vs IR + vehicle control, P<0.05): reduced; also recorded: reduces collagen deposition

glycyrrhizic acid [GLA]
symptoms of pneumonitis or fibrosis ([13]; 150 mg per day for 3 months from 2nd IR treatment): did not exhibit any symptom of pneumonitis or fibrosis; also recorded: mitigates pneumonitis | lung density (CT) ([13]; CT of 1st vs 2nd IR treatment): significantly reduced
